pIC50: −log10 of the molar value. Active and inactive are the calls of the source. The rule behind the calls is not given here.
Legend:
Acetylcholinesterase = Acetylcholinesterase (Electrophorus electricus, UniProt O42275); assay: Inhibition of electric eel AChE using acetylthiocholine chloride as a substrate incubated for 20 mins followed by substrate addition and measured after 20 mins by Ellman's method
[1] = molecular target: Acetylcholinesterase (Electrophorus electricus) (UniProt O42275); assay: Inhibition of electric eel AChE at 100 uM using acetylthiocholine chloride as a substrate incubated for 20 mins followed by substrate addition and measured after 20 mins by Ellman's method relative to control; settings: time 40.0 min
Sequence of Acetylcholinesterase (Electrophorus electricus) (O42275 24-633 limits assumed): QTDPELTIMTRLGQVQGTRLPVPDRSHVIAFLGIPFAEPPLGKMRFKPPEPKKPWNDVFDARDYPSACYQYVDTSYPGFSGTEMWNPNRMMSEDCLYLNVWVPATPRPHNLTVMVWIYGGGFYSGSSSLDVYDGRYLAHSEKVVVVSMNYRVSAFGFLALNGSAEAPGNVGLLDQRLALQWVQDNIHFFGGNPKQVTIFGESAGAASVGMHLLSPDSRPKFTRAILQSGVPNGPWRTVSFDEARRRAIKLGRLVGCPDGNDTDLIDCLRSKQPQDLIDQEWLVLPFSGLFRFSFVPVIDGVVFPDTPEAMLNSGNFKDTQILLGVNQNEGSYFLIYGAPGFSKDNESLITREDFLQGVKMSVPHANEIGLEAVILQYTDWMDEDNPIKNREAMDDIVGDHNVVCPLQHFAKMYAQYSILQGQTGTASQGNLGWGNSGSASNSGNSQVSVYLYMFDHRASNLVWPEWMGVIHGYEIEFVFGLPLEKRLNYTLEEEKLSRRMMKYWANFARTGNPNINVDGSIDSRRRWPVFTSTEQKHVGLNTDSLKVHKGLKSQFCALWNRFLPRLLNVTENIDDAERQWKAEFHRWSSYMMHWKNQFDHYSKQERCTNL

SH-SY5Y = assay: Neuroprotective activity against H2O2-induced oxidative stress in human SH-SY5Y cells assessed as cell viability at 50 uM pretreated for 1 hr followed by H2O2 addition and measured after 4 hrs by MTT assay relative to control; format: functional; settings: time 5 hrs, read-out: Activity
[2] = molecular target: Acetylcholinesterase (Electrophorus electricus) (UniProt O42275); assay: Inhibition of electric eel AChE at 100 uM using acetylthiocholine chloride as a substrate incubated for 20 mins followed by substrate addition and measured after 20 mins by Ellman's method; settings: time 40.0 min
[3] = molecular target: Acetylcholinesterase (Electrophorus electricus) (UniProt O42275); assay: Potency index, ratio of HPA IC50 to test compound IC50 for inhibition of electric eel AChE using acetylthiocholine chloride as a substrate incubated for 20 mins followed by substrate addition and measured after 20 mins by Ellman's method; settings: time 40.0 min

Sequence of Acetylcholinesterase (O42275 whole entry): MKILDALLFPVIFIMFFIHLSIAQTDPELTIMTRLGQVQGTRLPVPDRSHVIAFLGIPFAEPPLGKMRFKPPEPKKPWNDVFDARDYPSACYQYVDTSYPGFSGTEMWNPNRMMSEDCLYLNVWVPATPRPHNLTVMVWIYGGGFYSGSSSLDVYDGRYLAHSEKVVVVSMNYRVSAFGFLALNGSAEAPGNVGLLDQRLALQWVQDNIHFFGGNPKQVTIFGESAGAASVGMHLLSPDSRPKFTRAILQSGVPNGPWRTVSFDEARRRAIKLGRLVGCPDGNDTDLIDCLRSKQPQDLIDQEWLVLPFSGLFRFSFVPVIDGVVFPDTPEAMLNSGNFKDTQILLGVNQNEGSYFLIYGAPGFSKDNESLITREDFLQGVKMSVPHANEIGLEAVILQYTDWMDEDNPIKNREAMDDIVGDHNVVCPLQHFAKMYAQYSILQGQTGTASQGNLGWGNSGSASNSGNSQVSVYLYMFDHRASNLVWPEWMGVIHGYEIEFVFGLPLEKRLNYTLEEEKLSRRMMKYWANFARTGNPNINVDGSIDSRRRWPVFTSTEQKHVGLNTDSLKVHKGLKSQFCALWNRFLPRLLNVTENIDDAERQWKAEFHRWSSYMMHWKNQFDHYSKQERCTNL

For `C/C=C1\[C@H]2C=C(C)C[C@]1(Nc1ccc(F)cc1)c1ccc(=O)[nH]c1C2`, the pIC50 (Acetylcholinesterase) was 5.35 and the inhibition [1] was > 92%.

In the case of `C/C=C1\[C@H]2C=C(C)C[C@]1(Nc1ncccc1C)c1ccc(=O)[nH]c1C2`, the pIC50 (Acetylcholinesterase) was 4.40 and the inhibition [1] was > 92%.

`C/C=C1\[C@H]2C=C(C)C[C@]1(Nc1cccc(C)c1)c1ccc(=O)[nH]c1C2` was tested, and the pIC50 (Acetylcholinesterase) was 4.33, the inhibition [1] was > 92% and the viability at 50 µM (SH-SY5Y) was > 100%.

In the case of `C/C=C1\[C@H]2C=C(C)C[C@]1(Nc1cc(C)cc(C)c1)c1ccc(=O)[nH]c1C2`, the viability at 50 µM (SH-SY5Y) was > 100%.

With `C/C=C1\[C@H]2C=C(C)C[C@]1(Nc1cccc(F)c1)c1ccc(=O)[nH]c1C2` the inhibition [2] was “Active”.

In the case of `C/C=C1\[C@H]2C=C(C)C[C@]1(Nc1cccc3ncccc13)c1ccc(=O)[nH]c1C2`, the viability at 50 µM (SH-SY5Y) was > 100%.

With `C/C=C1\[C@H]2C=C(C)C[C@]1(Nc1ccc(OC)cn1)c1ccc(=O)[nH]c1C2` the Ratio IC50 [3] was 7.6, the pIC50 (Acetylcholinesterase) was 5.82 and the inhibition [1] was 106%. For the same compound, the viability at 50 µM (SH-SY5Y) was 144%.

In the case of `C/C=C1\[C@H]2C=C(C)C[C@]1(Nc1cccc(C)n1)c1ccc(=O)[nH]c1C2`, the viability at 50 µM (SH-SY5Y) was > 100%.

For `C/C=C1\[C@H]2C=C(C)C[C@]1(Nc1ccc(C)cc1)c1ccc(=O)[nH]c1C2`, the viability at 50 µM (SH-SY5Y) was > 100%.

With `C/C=C1\[C@H]2C=C(C)C[C@]1(Nc1ncccc1OC)c1ccc(=O)[nH]c1C2` the inhibition [2] was “Active”.

For `C/C=C1\[C@H]2C=C(C)C[C@]1(Nc1ccc(Cl)cc1)c1ccc(=O)[nH]c1C2`, the inhibition [2] was “Active”.

For `C/C=C1\[C@H]2C=C(C)C[C@]1(Nc1cccc(OC)c1)c1ccc(=O)[nH]c1C2`, the inhibition [2] was “Active”.

For `C/C=C1\[C@H]2C=C(C)C[C@]1(Nc1cc(C)ccn1)c1ccc(=O)[nH]c1C2`, the viability at 50 µM (SH-SY5Y) was > 100% and the inhibition [2] was “Active”.

For `C/C=C1\[C@H]2C=C(C)C[C@]1(Nc1ccc(OCC)cc1)c1ccc(=O)[nH]c1C2`, the viability at 50 µM (SH-SY5Y) was > 100%.

In the case of `C/C=C1\[C@H]2C=C(C)C[C@]1(Nc1ncc(C)cc1C)c1ccc(=O)[nH]c1C2`, the pIC50 (Acetylcholinesterase) was 4.37, the inhibition [1] was > 92% and the viability at 50 µM (SH-SY5Y) was > 100%.

For `C/C=C1\[C@H]2C=C(C)C[C@]1(Nc1c(C)cc(OC)cc1C)c1ccc(=O)[nH]c1C2`, the pIC50 (Acetylcholinesterase) was 5.41, the inhibition [1] was 96% and the viability at 50 µM (SH-SY5Y) was > 100%.

`C/C=C1\[C@H]2C=C(C)C[C@]1(Nc1ccc3c(c1)OCO3)c1ccc(=O)[nH]c1C2` was tested, and the viability at 50 µM (SH-SY5Y) was > 100%.
